Laboratory results: patent US20250230165A1, “HETEROCYCLIC COMPOUNDS FOR USE IN THE TREATMENT OF CANCER” (ARTIOS PHARMA LIMITED, priority 2021, published 2025)

Target: T1, Human Polθ polymerase domain (aa1820-2590) (Homo sapiens, UniProt O75417)
T1 construct: Human Polθ polymerase domain (aa1820-2590) was expressed in E. coli; made in house; host or cells: E. coli
T1 sequence (O75417 1820-2590): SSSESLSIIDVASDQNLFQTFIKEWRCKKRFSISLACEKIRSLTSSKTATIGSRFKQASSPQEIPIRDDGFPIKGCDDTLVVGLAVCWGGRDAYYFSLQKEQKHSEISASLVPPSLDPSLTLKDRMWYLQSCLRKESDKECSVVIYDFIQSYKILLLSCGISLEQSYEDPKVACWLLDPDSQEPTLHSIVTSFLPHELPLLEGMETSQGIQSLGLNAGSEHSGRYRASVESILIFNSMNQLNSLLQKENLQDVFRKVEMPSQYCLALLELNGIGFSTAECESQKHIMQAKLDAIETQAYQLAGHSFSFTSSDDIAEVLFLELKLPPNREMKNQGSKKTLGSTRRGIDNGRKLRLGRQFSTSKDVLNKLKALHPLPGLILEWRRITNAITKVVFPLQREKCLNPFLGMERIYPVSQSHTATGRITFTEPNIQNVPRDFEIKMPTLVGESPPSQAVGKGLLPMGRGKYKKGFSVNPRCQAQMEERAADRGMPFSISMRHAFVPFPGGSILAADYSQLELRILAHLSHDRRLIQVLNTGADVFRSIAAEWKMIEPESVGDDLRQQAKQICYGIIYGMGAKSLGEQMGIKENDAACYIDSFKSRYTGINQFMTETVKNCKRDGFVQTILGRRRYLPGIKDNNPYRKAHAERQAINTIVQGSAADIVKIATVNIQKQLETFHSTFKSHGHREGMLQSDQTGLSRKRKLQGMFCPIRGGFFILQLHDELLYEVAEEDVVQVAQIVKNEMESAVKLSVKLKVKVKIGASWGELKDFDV
Experiment: Polθ Polymerase Domain Kinact/KI Assay (PicoGreen)
Type: biochemical
Conditions: 0.8 nM Polθ, 100 nM DNA substrate, kobs vs [I] fit for 2-step covalent inhibitor
In short: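 Kinact and KI derive from fitting kobs versus [I], where kobs were fitted from EDTA-stopped PicoGreen time courses (up to 60 min) in Tris pH 7.5 buffer with 1% DMSO, 0.8 nM enzyme, 100 nM DNA and […].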

Structure (SMILES)	Kinact/Kl
C=CC(=O)N1CC(n2cnc(CN3C[C@H]4CC(=O)N(c5cc(C(F)(F)F)cc(C)n5)[C@@H]4C(=O)N(C)c4cccc(Cl)c43)n2)C1 [Example 42, (3aR,11aS)-5-((1-(1-acryloylazetidin-3-yl)-1H-1,2,4-triazol-3-yl)methyl)-6-chloro-10-methyl-1-(6-methyl-4-(trifluoromethyl)pyridin-2-yl)-1,3a,4,5,10,11a-hexahydro-2H-benzo[b]pyrrolo[2,3-f][1,4]diazocine-2,11(3H)-dione]	790000 M⁻¹ s⁻¹
Cc1cc(C(F)(F)F)cc(N2C(=O)C[C@@H]3CN(CCCOC4CN(C(=O)/C=C/CN(C)C)C4)c4c(F)cccc4N(C)C(=O)[C@H]32)n1 [Example 43, (3aR,11aS)-5-(3-((1-((E)-4-(dimethylamino)but-2-enoyl)azetidin-3-yl)oxy)propyl)-6-fluoro-10-methyl-1-(6-methyl-4-(trifluoromethyl)pyridin-2-yl)-1,3a,4,5,10,11a-hexahydro-2H-benzo[b]pyrrolo[2,3-f][1,4]diazocine-2,11(3H)-dione]	1.9e+06 M⁻¹ s⁻¹
Cc1cc(C(F)(F)F)cc(N2C(=O)C[C@@H]3CN(CCCOC4CN(C(=O)/C=C/CN(C)C)C4)c4c(Cl)cccc4N(C)C(=O)[C@H]32)n1 [Example 44, (3aR,11aS)-6-chloro-5-(3-((1-((E)-4-(dimethylamino)but-2-enoyl)azetidin-3-yl)oxy)propyl)-10-methyl-1-(6-methyl-4-(trifluoromethyl)pyridin-2-yl)-1,3a,4,5,10,11a-hexahydro-2H-benzo[b]pyrrolo[2,3-f][1,4]diazocine-2,11(3H)-dione]	2.22e+06 M⁻¹ s⁻¹
C=CC(=O)N1CCN2CCN(CCN3C[C@H]4CC(=O)N(c5cc(C(F)(F)F)cc(C)n5)[C@@H]4C(=O)N(C)c4cccc(F)c43)C(=O)[C@@H]2C1 [Example 45, (3aR,11aS)-5-(2-((S)-8-acryloyl-1-oxooctahydro-2H-pyrazino[1,2-a]pyrazin-2-yl)ethyl)-6-fluoro-10-methyl-1-(6-methyl-4-(trifluoromethyl)pyridin-2-yl)-1,3a,4,5,10,11a-hexahydro-2H-benzo[b]pyrrolo[2,3-f][1,4]diazocine-2,11(3H)-dione]	310000 M⁻¹ s⁻¹
C=CC(=O)N1CCN2CCN(CCN3C[C@H]4CC(=O)N(c5cc(C(F)(F)F)cc(C)n5)[C@@H]4C(=O)N(C)c4cccc(F)c43)C(=O)[C@H]2C1 [Example 46, (3aR,11aS)-5-(2-((R)-8-acryloyl-1-oxooctahydro-2H-pyrazino[1,2-a]pyrazin-2-yl)ethyl)-6-fluoro-10-methyl-1-(6-methyl-4-(trifluoromethyl)pyridin-2-yl)-1,3a,4,5,10,11a-hexahydro-2H-benzo [b]pyrrolo[2,3-f][1,4] diazocine-2,11(3H)-dione]	480000 M⁻¹ s⁻¹
C=CC(=O)N1CCN2CC(=O)N(CCN3C[C@H]4CC(=O)N(c5cc(C(F)(F)F)cc(C)n5)[C@@H]4C(=O)N(C)c4cccc(F)c43)C[C@@H]2C1 [Example 47, (3aR,11aS)-5-(2-((S)-8-acryloyl-3-oxooctahydro-2H-pyrazino[1,2-a]pyrazin-2-yl)ethyl)-6-fluoro-10-methyl-1-(6-methyl-4-(trifluoromethyl)pyridin-2-yl)-1,3a,4,5,10,11a-hexahydro-2H-benzo[b]pyrrolo[2,3-f][1,4]diazocine-2,11(3H)-dione]	140000 M⁻¹ s⁻¹
C=CC(=O)N1CCN2CC(=O)N(CCN3C[C@H]4CC(=O)N(c5cc(C(F)(F)F)cc(C)n5)[C@@H]4C(=O)N(C)c4cccc(F)c43)C[C@H]2C1 [Example 48, (3aR,11aS)-5-(2-((R)-8-acryloyl-3-oxooctahydro-2H-pyrazino[1,2-a]pyrazin-2-yl)ethyl)-6-fluoro-10-methyl-1-(6-methyl-4-(trifluoromethyl)pyridin-2-yl)-1,3a,4,5,10,11a-hexahydro-2H-benzo[b]pyrrolo[2,3-f][1,4]diazocine-2,11(3H)-dione]	110000 M⁻¹ s⁻¹
C=CC(=O)N1CCc2c(ncn2CCN2C[C@H]3CC(=O)N(c4cc(C(F)(F)F)cc(C)n4)[C@@H]3C(=O)N(C)c3cccc(F)c32)C1 [Example 49, (3aR,11aS)-5-(2-(5-acryloyl-4,5,6,7-tetrahydro-1H-imidazo[4,5-c]pyridin-1-yl)ethyl)-6-fluoro-10-methyl-1-(6-methyl-4-(trifluoromethyl)pyridin-2-yl)-1,3a,4,5,10,11a-hexahydro-2H-benzo[b]pyrrolo[2,3-f][1,4]diazocine-2,11(3H)-dione]	340000 M⁻¹ s⁻¹

Now from value to compound:

Kinact/Kl	Structure (SMILES)
190000 M⁻¹ s⁻¹	C=CC(=O)N1CCc2ncn(CCN3C[C@H]4CC(=O)N(c5cc(C(F)(F)F)cc(C)n5)[C@@H]4C(=O)N(C)c4cccc(F)c43)c2C1 [Example 50, (3aR,11aS)-5-(2-(5-acryloyl-4,5,6,7-tetrahydro-3H-imidazo[4,5-c]pyridin-3-yl)ethyl)-6-fluoro-10-methyl-1-(6-methyl-4-(trifluoromethyl)pyridin-2-yl)-1,3a,4,5,10,11a-hexahydro-2H-benzo[b]pyrrolo[2,3-f][1,4]diazocine-2,11(3H)-dione]
210000 M⁻¹ s⁻¹	C=CC(=O)N1CC(N2CCN(C(=O)CN3C[C@H]4CC(=O)N(c5cc(C(F)(F)F)cc(C)n5)[C@@H]4C(=O)N(C)c4cccc(F)c43)CC2)C1 [Example 51, (3aR,11aS)-5-(2-(4-(1-acryloylazetidin-3-yl)piperazin-1-yl)-2-oxoethyl)-6-fluoro-10-methyl-1-(6-methyl-4-(trifluoromethyl)pyridin-2-yl)-1,3a,4,5,10,11a-hexahydro-2H-benzo[b]pyrrolo[2,3-f][1,4]diazocine-2,11(3H)-dione]
190000 M⁻¹ s⁻¹	C=CC(=O)N1CC2(C1)CN(C(=O)CN1C[C@H]3CC(=O)N(c4cc(C(F)(F)F)cc(C)n4)[C@@H]3C(=O)N(C)c3cccc(F)c31)C[C@@H](C)N2 [Example 52, (3aR,11aS)-5-(2-((R)-2-acryloyl-6-methyl-2,5,8-triazaspiro[3.5]nonan-8-yl)-2-oxoethyl)-6-fluoro-10-methyl-1-(6-methyl-4-(trifluoromethyl)pyridin-2-yl)-1,3a,4,5,10,11a-hexahydro-2H-benzo[b]pyrrolo[2,3-f][1,4]diazocine-2,11(3H)-dione]
24000 M⁻¹ s⁻¹	C=CC(=O)N1CCN(c2cc(N3C[C@H]4CC(=O)N(c5cc(C(F)(F)F)cc(C)n5)[C@@H]4C(=O)N(C)c4cccc(F)c43)ccn2)CC1 [Example 53, (3aR,11aS)-5-(2-(4-acryloylpiperazin-1-yl)pyridin-4-yl)-6-fluoro-10-methyl-1-(6-methyl-4-(trifluoromethyl)pyridin-2-yl)-1,3a,4,5,10,11a-hexahydro-2H-benzo[b]pyrrolo[2,3-f][1,4]diazocine-2,11(3H)-dione]
110000 M⁻¹ s⁻¹	C=CC(=O)N1CCN(c2cccc(N3C[C@H]4CC(=O)N(c5cc(C(F)(F)F)cc(C)n5)[C@@H]4C(=O)N(C)c4cccc(F)c43)c2)CC1 [Example 54, (3aR,11aS)-5-(3-(4-acryloylpiperazin-1-yl)phenyl)-6-fluoro-10-methyl-1-(6-methyl-4-(trifluoromethyl)pyridin-2-yl)-1,3a,4,5,10,11a-hexahydro-2H-benzo[b]pyrrolo[2,3-f][1,4]diazocine-2,11(3H)-dione]
15000 M⁻¹ s⁻¹	C=CC(=O)N1CCN(c2cccc(N3C[C@H]4CC(=O)N(c5cc(C(F)(F)F)cc(C)n5)[C@@H]4C(=O)N(C)c4cccc(F)c43)n2)CC1 [Example 55, (3aR,11aS)-5-(6-(4-acryloylpiperazin-1-yl)pyridin-2-yl)-6-fluoro-10-methyl-1-(6-methyl-4-(trifluoromethyl)pyridin-2-yl)-1,3a,4,5,10,11a-hexahydro-2H-benzo[b]pyrrolo[2,3-f][1,4]diazocine-2,11(3H)-dione]
36000 M⁻¹ s⁻¹	C=CC(=O)N1CCN(c2cccc(N3C[C@H]4CC(=O)N(c5cc(C(F)(F)F)cc(C)n5)[C@@H]4C(=O)N(C)c4cccc(Cl)c43)n2)CC1 [Example 56, (3aR,11aS)-5-(6-(4-acryloylpiperazin-1-yl)pyridin-2-yl)-6-chloro-10-methyl-1-(6-methyl-4-(trifluoromethyl)pyridin-2-yl)-1,3a,4,5,10,11a-hexahydro-2H-benzo[b]pyrrolo[2,3-f][1,4]diazocine-2,11(3H)-dione]
34000 M⁻¹ s⁻¹	C=CC(=O)N1CC(Oc2cccc(N3C[C@H]4CC(=O)N(c5cc(C(F)(F)F)cc(C)n5)[C@@H]4C(=O)N(C)c4cccc(F)c43)n2)C1 [Example 57, (3aR,11aS)-5-(6-((1-acryloylazetidin-3-yl)oxy)pyridin-2-yl)-6-fluoro-10-methyl-1-(6-methyl-4-(trifluoromethyl)pyridin-2-yl)-1,3a,4,5,10,11a-hexahydro-2H-benzo[b]pyrrolo[2,3-f][1,4]diazocine-2,11(3H)-dione]
